Oc1ccc(OCc2ccccc2)cc1
solubility (mole fraction)
Conditions	283.15 K	288.15 K	293.15 K	298.15 K	303.15 K	308.15 K	313.15 K	318.15 K	323.15 K	328.15 K
in ethanol	0.0483	0.056	0.0644	0.0737	0.0846	0.0956	0.109	0.123	0.137	0.155
in ethylene glycol	0.0053	0.00664	0.00822	0.0101	0.0125	0.0149	0.018	0.0216	0.0257	0.0302
in isopropanol	0.0217	0.0261	0.0308	0.0365	0.0425	0.0503	0.0583	0.0671	0.0778	0.0896
in n-propanol	0.0381	0.0446	0.052	0.0605	0.0702	0.0804	0.0931	0.106	0.12	0.137
in water	3.57e-06	4.49e-06	5.64e-06	7.04e-06	8.71e-06	1.07e-05	1.3e-05	1.57e-05	1.91e-05	2.29e-05

Source: BigSolDB 2.1
